pIC50: −log10 of the molar value. Like-named read-outs stand apart in the source and are kept apart here.
Legend:
Mutant type EZH2(Y641F) = Mutant type EZH2(Y641F) (Homo sapiens (Human), UniProt Q15910, Y641F); test: AlphaLISA, mutant type PRC2 complex EZH2(Y641F); assay type: biochemical; settings: read-out: Mutant type EZH2(Y641F) IC50 Nanomoles per Liter
[1] = system: human diffuse large cell lymphoma B lymphocytes (Pfeiffer cell); test: Pfeiffer cell proliferation, Calcein AM staining; assay type: cell-based; settings: Homo sapiens, Pfeiffer; for pIC50: data of 14th day, read-out: Pfeiffer Proliferation IC50 Nanomoles per Liter
Text: The diffuse large cell lymphoma B lymphocytes (Pfeiffer cells) were collected and counted when growing well.

[2] = system: human diffuse large B-cell lymphoma cells (Karpas 422 cell); test: Karpas 422 cell proliferation, Calcein AM staining; assay type: cell-based; settings: Homo sapiens; for pIC50: KARPAS-422, data of 14th day, read-out: Karpas422 Proliferation IC50 Nanomoles per Liter
[3] = Pharmacokinetic experiment in rats; assay type: in vivo, SD rats
Method: A certain amount of compound was weighted and dissolved in 0.1% Tween under vortex and ultrasound, and 0.5% carboxymethyl cellulose sodium (CMC-NA) solution was added to form a uniform solution.

Mutant type EZH2(A677G) = Mutant type EZH2(A677G) (Homo sapiens (Human), UniProt Q15910, A677G); test: AlphaLISA, mutant type PRC2 complex EZH2(A677G); assay type: biochemical
Chain of Mutant type EZH2(A677G) (Q15910 whole entry A677G): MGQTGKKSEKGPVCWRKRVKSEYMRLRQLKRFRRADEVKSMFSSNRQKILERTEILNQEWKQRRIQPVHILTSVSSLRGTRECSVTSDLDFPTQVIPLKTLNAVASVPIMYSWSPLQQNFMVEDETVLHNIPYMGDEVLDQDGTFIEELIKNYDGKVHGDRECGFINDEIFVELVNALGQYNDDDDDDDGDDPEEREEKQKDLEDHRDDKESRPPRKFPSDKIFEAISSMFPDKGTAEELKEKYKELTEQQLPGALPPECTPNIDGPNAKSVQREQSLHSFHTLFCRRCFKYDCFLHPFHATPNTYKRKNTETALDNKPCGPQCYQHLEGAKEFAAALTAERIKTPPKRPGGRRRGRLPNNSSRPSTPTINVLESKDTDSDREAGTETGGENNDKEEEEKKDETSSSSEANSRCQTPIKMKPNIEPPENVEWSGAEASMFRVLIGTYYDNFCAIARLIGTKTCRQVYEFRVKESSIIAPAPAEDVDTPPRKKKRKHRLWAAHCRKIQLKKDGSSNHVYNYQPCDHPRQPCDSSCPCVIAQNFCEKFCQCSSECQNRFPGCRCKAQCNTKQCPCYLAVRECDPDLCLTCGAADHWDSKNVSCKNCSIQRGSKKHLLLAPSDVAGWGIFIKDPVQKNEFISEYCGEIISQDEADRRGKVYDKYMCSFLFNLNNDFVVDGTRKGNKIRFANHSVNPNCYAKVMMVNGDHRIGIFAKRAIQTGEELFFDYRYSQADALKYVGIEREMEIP
Chain of Mutant type EZH2(A677G) (O75530 whole entry partner): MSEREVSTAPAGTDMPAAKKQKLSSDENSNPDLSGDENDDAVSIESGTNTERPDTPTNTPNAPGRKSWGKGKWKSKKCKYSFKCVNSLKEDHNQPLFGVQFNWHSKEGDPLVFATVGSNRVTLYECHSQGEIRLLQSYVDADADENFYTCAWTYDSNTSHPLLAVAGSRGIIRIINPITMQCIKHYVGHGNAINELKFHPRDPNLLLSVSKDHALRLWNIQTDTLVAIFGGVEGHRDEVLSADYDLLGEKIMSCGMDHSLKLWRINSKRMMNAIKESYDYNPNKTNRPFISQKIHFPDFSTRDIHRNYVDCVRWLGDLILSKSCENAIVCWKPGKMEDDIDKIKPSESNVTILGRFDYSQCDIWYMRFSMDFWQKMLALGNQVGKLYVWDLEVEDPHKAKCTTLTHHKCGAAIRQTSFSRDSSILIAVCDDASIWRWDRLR
Chain of Mutant type EZH2(A677G) (Q15022 whole entry partner): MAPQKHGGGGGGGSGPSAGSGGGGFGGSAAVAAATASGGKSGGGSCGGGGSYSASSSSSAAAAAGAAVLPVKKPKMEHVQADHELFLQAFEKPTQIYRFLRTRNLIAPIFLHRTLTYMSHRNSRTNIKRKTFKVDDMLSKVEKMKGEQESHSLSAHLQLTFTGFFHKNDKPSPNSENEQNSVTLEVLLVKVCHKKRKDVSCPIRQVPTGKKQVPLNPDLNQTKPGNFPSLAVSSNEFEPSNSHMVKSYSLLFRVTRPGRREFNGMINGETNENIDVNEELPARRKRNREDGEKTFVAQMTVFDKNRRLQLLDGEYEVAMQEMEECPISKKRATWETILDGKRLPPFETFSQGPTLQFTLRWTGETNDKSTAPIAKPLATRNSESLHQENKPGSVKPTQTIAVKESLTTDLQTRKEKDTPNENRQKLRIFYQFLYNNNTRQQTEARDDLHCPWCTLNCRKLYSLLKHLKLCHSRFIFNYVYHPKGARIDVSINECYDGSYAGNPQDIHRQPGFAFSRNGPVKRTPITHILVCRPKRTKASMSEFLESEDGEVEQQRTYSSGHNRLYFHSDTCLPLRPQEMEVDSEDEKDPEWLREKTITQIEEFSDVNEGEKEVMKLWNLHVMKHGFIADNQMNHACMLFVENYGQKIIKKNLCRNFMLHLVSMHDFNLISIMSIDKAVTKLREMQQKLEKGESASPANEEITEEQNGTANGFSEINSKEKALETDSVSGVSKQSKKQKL
Chain of Mutant type EZH2(A677G) (Q09028 whole entry partner): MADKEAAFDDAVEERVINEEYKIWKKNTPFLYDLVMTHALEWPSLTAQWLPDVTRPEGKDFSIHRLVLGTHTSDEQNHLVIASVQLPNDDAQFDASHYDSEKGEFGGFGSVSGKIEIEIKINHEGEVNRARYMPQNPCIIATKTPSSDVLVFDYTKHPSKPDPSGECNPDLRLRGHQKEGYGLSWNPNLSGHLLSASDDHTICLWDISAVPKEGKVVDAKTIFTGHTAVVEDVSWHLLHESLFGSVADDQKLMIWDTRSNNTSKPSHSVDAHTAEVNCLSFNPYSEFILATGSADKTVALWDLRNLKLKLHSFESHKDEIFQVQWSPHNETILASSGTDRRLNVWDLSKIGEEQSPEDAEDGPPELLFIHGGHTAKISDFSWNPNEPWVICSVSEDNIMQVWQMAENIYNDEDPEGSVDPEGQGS
Chain of Mutant type EZH2(A677G) (Q6ZN18 whole entry partner): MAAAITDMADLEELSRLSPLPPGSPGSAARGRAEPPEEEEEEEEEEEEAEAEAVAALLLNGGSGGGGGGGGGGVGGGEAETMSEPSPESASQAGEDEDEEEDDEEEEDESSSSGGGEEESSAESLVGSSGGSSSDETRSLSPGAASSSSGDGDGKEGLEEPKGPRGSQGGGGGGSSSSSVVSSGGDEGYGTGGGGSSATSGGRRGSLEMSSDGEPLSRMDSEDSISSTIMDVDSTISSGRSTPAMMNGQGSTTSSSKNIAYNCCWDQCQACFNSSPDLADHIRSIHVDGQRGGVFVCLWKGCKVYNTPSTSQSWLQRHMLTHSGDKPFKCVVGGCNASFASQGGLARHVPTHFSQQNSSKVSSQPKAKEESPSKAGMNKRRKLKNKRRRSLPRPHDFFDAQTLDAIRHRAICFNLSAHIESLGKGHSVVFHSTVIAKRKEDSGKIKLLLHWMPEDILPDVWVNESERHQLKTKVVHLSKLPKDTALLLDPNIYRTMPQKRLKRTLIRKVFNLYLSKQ

Mutant type EZH2(Y641N) = Mutant type EZH2(Y641N) (Homo sapiens (Human), UniProt Q15910, Y641N); test: AlphaLISA, mutant type PRC2 complex EZH2(Y641N); assay type: biochemical; settings: read-out: Mutant type EZH2(Y641N) IC50 Nanomoles per Liter
Chain of Mutant type EZH2(Y641N) (Q15910 whole entry Y641N): as the sequence (Q15910 whole entry A677G) above, with Y641N, G677A counted along it
Chain of Mutant type EZH2(Y641N) (O75530 whole entry partner): as the sequence (O75530 whole entry partner) above
Chain of Mutant type EZH2(Y641N) (Q15022 whole entry partner): as the sequence (Q15022 whole entry partner) above
Chain of Mutant type EZH2(Y641N) (Q09028 whole entry partner): as the sequence (Q09028 whole entry partner) above
Chain of Mutant type EZH2(Y641N) (Q6ZN18 whole entry partner): as the sequence (Q6ZN18 whole entry partner) above

wild-type EZH2 = wild-type EZH2 (Homo sapiens (Human), UniProt Q15910); test: radiometric assay, activity to wild-type EZH2 of PRC2
Chain of wild-type EZH2 (Q15910 whole entry): as the sequence (Q15910 whole entry A677G) above, with G677A counted along it
Chain of wild-type EZH2 (O75530 whole entry partner): as the sequence (O75530 whole entry partner) above
Chain of wild-type EZH2 (Q15022 whole entry partner): as the sequence (Q15022 whole entry partner) above
Method: 25 μL of reaction solution was transferred to a scintillation plate, which was incubated at room temperature for 1 hour (h) and washed with deionized water and 0.1% Tween 20 for three times. A PerkinElmer liquid scintillation/luminescence counter was used to read the value, and GraphPad Prism 5 was used to calculate the median inhibitory concentration (IC50) of the compounds.

[4] = male, SD, rat, plasma, rats, Intravenous-Dose 4 mg/kg, read-out: Area Curve (AUC, ng/mL · h)
[5] = male, SD, rat, plasma; rats, Intravenous-Dose 4 mg/kg; read-out: Half life T1/2, h) (converted)
[6] = male, SD, rat, plasma, rats, Oral-Dose 20 mg/kg, read-out: Area Curve (AUC, ng/mL · h)
[7] = male, SD, rat, plasma, rats, Oral-Dose 20 mg/kg, read-out: Blood Drug level (Cmax, ng/mL)
[8] = male, SD, rat, plasma, rats, oral 20 mg/kg vs intravenous 4 mg/kg, read-out: Bioavailability (P %)
[9] = read-out: Mutant type EZH2(A677G) IC59 Nanomoles per Liter
[10] = read-out: Wild-type EZH2 IC50 Nanomoles per Liter
[11] = male, SD, rat, in vivo, iv, 4 mg/kg
[12] = male, SD, rat, in vivo, po, 20 mg/kg

Chain of Mutant type EZH2(Y641F) (Q15910 whole entry Y641F): as the sequence (Q15910 whole entry A677G) above, with Y641F, G677A counted along it
Chain of Mutant type EZH2(Y641F) (O75530 whole entry partner): as the sequence (O75530 whole entry partner) above
Chain of Mutant type EZH2(Y641F) (Q15022 whole entry partner): as the sequence (Q15022 whole entry partner) above
Chain of Mutant type EZH2(Y641F) (Q09028 whole entry partner): as the sequence (Q09028 whole entry partner) above
Chain of Mutant type EZH2(Y641F) (Q6ZN18 whole entry partner): as the sequence (Q6ZN18 whole entry partner) above

| SMILES | pIC50 (Mutant type EZH2(Y641F)) | pIC50 [1] | pIC50 [2] | pIC50 (Mutant type EZH2(A677G); [9]) | pIC50 (Mutant type EZH2(Y641N)) | pIC50 (wild-type EZH2; [10]) | other results |
| --- | --- | --- | --- | --- | --- | --- | --- |
| CCN(c1cc(-c2ccc3c(c2)C(=O)C2(CCOCC2)C3)cc(C(=O)NCc2c(C)cc(C)[nH]c2=O)c1C)C1CCOCC1 [Example 78, N-((4,6-dimethyl-2-oxo-1,2-dihydropyridin-3-yl)methyl)-3-(ethyl(tetrahydro-2H-pyran-4-yl)amino)-2-methyl-5-(1-oxo-1,2′,3,3′,5′,6′-hexahydrospiro[indene-2,4′-pyran]-6-yl)benzamide] |  | 8.72 | 8.66 |  | 9.64 | 9.09 |  |
| CCN(c1cc(-c2ccc3c(c2)NC(=O)C32CCOCC2)cc(C(=O)NCc2c(C)cc(C)[nH]c2=O)c1C)C1CCOCC1OC (centres unmarked) [Example 102, N-((4,6-Dimethyl-2-oxo-1,2-dihydropyridin-3-yl)methyl)-3-((ethyl)(3-methoxytetrahydro-2H-pyran-4-yl)amino)-2-methyl-5-(2-oxo-2′,3′,5′,6′-tetrahydrospiro[dihydroindole-3,4′-pyran]-6-yl)benzamide] | 9.05 | 8.46 | 8.41 | 9.14 | 9.35 | 9.02 |  |
| CCN(c1cc(-c2ccc3c(c2)NC(=O)C32CCC(=O)CC2)cc(C(=O)NCc2c(C)cc(C)[nH]c2=O)c1C)C1CCOCC1 [Example 92, N-((4,6-Dimethyl-2-oxo-1,2-dihydropyridin-3-yl)methyl)-5-(2′,4-dioxospiro[cyclohexane-1,3′-dihydroindole]-6′-yl)-3-(ethyl(tetrahydro-2H-pyran-4-yl)amino)-2-methylbenzamide] | 9.17 | 8.74 | 8.55 | 9.24 | 9.43 | 9.06 |  |
| CCN(c1cc(-c2ccc3c(c2)NC(=O)C32CCOCC2)cc(C(=O)NCc2c(OC)cc(C)[nH]c2=O)c1C)C1CCC(N(C)C2COC2)CC1 (centres unmarked) [Example 122, 3-(Ethyl(4-(methyl(oxetan-3-yl)amino)cyclohexyl)amino)-N-((4-methoxy-6-methyl-2-oxo-1,2-dihydropyridin-3-yl)methyl)-2-methyl-5-(2-oxo-2′,3′,5′,6′-tetrahydrospiro[dihydroindole-3,4′-pyran]-6-yl)benzamide] |  | 8.54 | 8.61 |  | 9.68 | 9.06 |  |
| CCN(c1cc(-c2ccc3c(c2)C2(CC=C(F)CC2)C(=O)N3)cc(C(=O)NCc2c(C)cc(C)[nH]c2=O)c1C)C1CCOCC1 (centres unmarked) [Example 118, N-((4,6-dimethyl-2-carbonyl-1,2-dihydropyridin-3-yl)methyl)-3-(ethyl(tetrahydro-2H-pyran-4-yl)amino)-5-(4-fluoro-2′-carbonylspiro[cyclohexano-1,3′-dihydroindole]-3-ene-5′-yl)-2-methylbenzamide] | 9.24 |  |  |  | 9.49 |  | IC50 ([1]; read-out: Pfeiffer Proliferation IC50 Nanomoles per Liter (nM)): 1.05 nM; IC50 ([2]; KARPAS-422, read-out: Karpas422 Proliferation IC50 Nanomoles per Liter (nM)): 1.68 nM; pIC50 (Mutant type EZH2(A677G)): 9.35; pIC50 (wild-type EZH2): 9.04 |
| CCN(c1cc(-c2ccc3c(c2)NC(=O)C32CCOCC2)cc(C(=O)NCc2c(OC)cc(C)[nH]c2=O)c1C)C1CCC(N(C)CCOC)CC1 (centres unmarked) [Example 120, 3-(Ethyl(4-((2-methoxyethyl)(methyl)amino)cyclohexyl)amino)-N-((4-methoxy-6-methyl-2-oxo-1,2-dihydropyridin-3-yl)methyl)-2-methyl-5-(2-oxo-2′,3′,5′,6′-tetrahydrospiro[dihydroindole-3,4′-pyran]-6-yl)benzamide] | 9.17 | 8.53 | 8.35 | 9.28 | 9.32 | 8.90 |  |
| CCN(c1cc(-c2cc3c(cc2F)C2(CCOCC2)CC3)cc(C(=O)NCc2c(OC)cc(C)[nH]c2=O)c1C)C1CCOCC1 [Example 17, 3-(ethyl(tetrahydro-2H-pyran-4-yl)amino)-5-(6-fluoro-2,2′,3,3′,5′,6′-hexahydrospiro[indene-1,4′-pyran]-5-yl)-N-((4-methoxy-6-methyl-2-carbonyl-1,2-dihydropyridin-3-yl)methyl)-2-methylbenzamide] |  | 8.56 | 8.51 |  | 9.52 | 8.96 |  |
| CCN(c1cc(-c2ccc3c(c2)NC(=O)C32CCOCC2)cc(C(=O)NCc2c(C)cc(C)[nH]c2=O)c1C)C1CCN(C2COC2)CC1 [Example 82, N-((4,6-dimethyl-2-oxo-1,2-dihydropyridin-3-yl)methyl)-2-methyl-3-(ethyl(1-(oxetan-3-yl)piperidin-4-yl)amino)-5-(2-oxo-2′,3′,5′,6′-tetrahydrospiro[dihydroindole-3,4′-pyran]-6-yl)benzamide] | 9.28 | 8.55 | 8.44 |  | 9.80 | 9.08 |  |
| CCN(c1cc(-c2ccc3c(c2)C=CC32CCN(C(C)C)CC2)cc(C(=O)NCc2c(OC)cc(C)[nH]c2=O)c1C)C1CCOCC1 [Example 37, 3-(ethyl(tetrahydro-2H-pyran-4-yl)amino)-5-(1′-isopropylspiro[indene-1,4′-piperidine]-5-yl)-N-((4-methoxy-6-methyl-2-carbonyl-1,2-dihydropyridin-3-yl)methyl)-2-methylbenzamide] | 9.27 | 9.06 | 9.02 |  | 9.64 | 9.22 | AUC [3, 11]: 903 ng·h/mL; half-life [3, 11]: 1.25 h; AUC [3, 12]: 1540 ng·h/mL; Cmax [3, 12]: 444 ng/mL; bioavailability [3, 12]: 34.1% |

Second part, led by results:

| pIC50 (Mutant type EZH2(Y641F)) | pIC50 [1] | pIC50 [2] | pIC50 (Mutant type EZH2(A677G); [9]) | pIC50 (Mutant type EZH2(Y641N)) | pIC50 (wild-type EZH2; [10]) | SMILES | other results |
| --- | --- | --- | --- | --- | --- | --- | --- |
| 9.25 | 10.00 | 9.39 | 9.39 | 9.64 |  | CCN(c1cc(-c2cc3c(cc2F)CCC32CCOCC2)cc(C(=O)NCc2c(C)cc(C)[nH]c2=O)c1C)C1CCOCC1 [Example 24, N-((4,6-dimethyl-2-carbonyl-1,2-dihydropyridin-3-yl)methyl)-3-(ethyl(tetrahydro-2H-pyran-4-yl)amino)-5-(5-fluoro-2,2′,3,3′,5′,6′-hexahydrospiro[indene-1,4′-pyran]-6-yl)-2-methylbenzamide] | AUC [3, 4]: 943 ng·h/mL; half-life [3, 5]: 1.08 h; AUC [3, 6]: 1350 ng·h/mL; Cmax [3, 7]: 479 ng/mL; bioavailability [3, 8]: 28.7% |
| 9.27 | 8.78 | 8.60 | 9.42 | 9.57 |  | CCN(c1cc(-c2ccc3c(c2)CCC32CCOCC2)cc(C(=O)NCc2c(OC)cc(C)[nH]c2=O)c1C)C1CCOCC1 [Example 113, 3-(Ethyl(tetrahydro-2H-pyran-4-yl)amino)-5-(2,2′,3,3′,5′,6′-hexahydrospiro[indene-1,4′-pyran]-5-yl)-N-((4-methoxy-6-methyl-2-oxo-1,2-dihydropyridin-3-yl)methyl)-2-methylbenzamide] |  |
| 9.51 | 8.76 | 8.74 | 9.57 | 9.72 |  | CCN(c1cc(-c2ccc3c(c2)NC(=O)C32CCOCC2)cc(C(=O)NCc2c(C)cc(C)[nH]c2=O)c1C)C1CC(C)OC(C)C1 (centres unmarked) [Example 104, N-((4,6-Dimethyl-2-oxo-1,2-dihydropyridin-3-yl)methyl)-3-(ethyl(2,6-dimethyltetrahydro-2H-pyran-4-yl)amino)-2-methyl-5-(2-oxo-2′,3′,5′,6′-tetrahydrospiro[dihydroindole-3,4′-pyran]-6-yl)benzamide] |  |
| 9.70 | 8.94 | 8.71 | 9.70 | 10.15 |  | CCN(c1cc(-c2ccc3c(c2)NCC32CCOCC2)cc(C(=O)NCc2c(C)cc(C)[nH]c2=O)c1C)C1CCNCC1 [Example 6, N-((4,6-dimethyl-2-oxo-1,2-dihydropyridin-3-yl)methyl)-3-(ethyl(piperidin-4-yl)amino)-2-methyl-5-(2′,3′,5′,6′-tetrahydrospiro[dihydroindole-3,4′-pyran]-6-yl)benzamide] | AUC [3, 4]: 936 ng·h/mL; half-life [3, 5]: 1.26 h; AUC [3, 6]: 1190 ng·h/mL; Cmax [3, 7]: 494 ng/mL; bioavailability [3, 8]: 25.5% |
| 9.21 | 8.81 | 8.56 | 9.29 | 9.38 |  | CCN(c1cc(-c2ccc3c(c2)NC(=O)C32CCN(C(C)=O)CC2)cc(C(=O)NCc2c(C)cc(C)[nH]c2=O)c1C)C1CCOCC1 [Example 88] | pIC50 (wild-type EZH2): 9.02 |
| 9.44 | 8.97 | 8.65 |  | 9.68 | 9.17 | CCN(c1cc(-c2ccc3c(c2)NC(=O)C32CCOCC2)cc(C(=O)NCc2c(C)cc(C)[nH]c2=O)c1C)C1CCC(N(C)C)CC1 (centres unmarked) [Example 98, N-((4,6-Dimethyl-2-oxo-1,2-dihydropyridin-3-yl)methyl)-3-((ethyl)(4-dimethylamino-cyclohexyl)amino)-2-methyl-5-(2-oxo-2′,3′,5′,6′-tetrahydrospiro[dihydroindole-3,4′-pyran]-6-yl)benzamide] |  |

From US12473298B2, “Amide compounds, preparation method therefor, and use thereof in the medical field” (Shanghai Synergy Pharmaceutical Sciences Co., Ltd., priority 2019, dated 2025)
